Reference: patent US11116710B2, “Antimicrobial compositions” (SYMRISE AG, priority 2016, dated 2021)
≈ marks a conversion by molar mass, not a printed value.

Tests used:
[1] = tested on: E. coli; assay: Preservative challenge test (European Pharmacopoeia 7.0, 5.1.3) in anionic emulsion with Dracorin CE; type: cell-based, Escherichia coli; settings: pH 5.5
Method: (§1) The invention will be further described in the following on the basis of examples. The examples serve to illustrate the invention, without thereby restricting the scope of protection of the claims. For examples, 1 to 11 preservative challenge tests according to European Pharmacopoeia 7.0 (5.1.3. Efficacy of antimicrobial preservation) were used. For example 12, activities were determined by measuring minimum inhibitory concentrations (MIC values) according to DIN 58940. All numerical information relates to weight, unless stated otherwise.
(§2) Activity of Benzoic acid-3-hydroxypropylester (BAHP) against the microorganisms E. coli, P. aeruginosa, S. aureus, C. albicans and spores of A. brasiliensis was evaluated in an anionic emulsion with Dracorin CE as emulsifier. The pH value of the emulsion was 5.5.
(§3) Activity of Furoic acid-3-hydroxypropylester (FAHP) against the microorganisms E. coli, P. aeruginosa, S. aureus, C. albicans and spores of A. brasiliensis was evaluated in an anionic emulsion with Dracorin CE as emulsifier. The pH value of the emulsion was 5.5.
(§4) Activity of Anisic acid-3-hydroxypropylester (AAHP) against the microorganisms E. coli, P. aeruginosa, S. aureus, C. albicans and spores of A. brasiliensis was evaluated in an anionic emulsion with Dracorin CE as emulsifier. The pH value of the emulsion was 5.5.
as §2, with “Synergistic effects between” for “Activity of”, “(BAHP) and 1,2-Octanediol were determined. Activity of BAHP, 1,2-Octanediol and the combination of BAHP and 1,2-Octanediol” for “(BAHP)”

[2] = tested on: P. aeruginosa; assay: as above; type: cell-based, Pseudomonas aeruginosa; settings: pH 5.5
Method: as §1, §2, §3, §4
as §2, with “Synergistic effects between” for “Activity of”, “(BAHP) and 1,2-Octanediol were determined. Activity of BAHP, 1,2-Octanediol and the combination of BAHP and 1,2-Octanediol” for “(BAHP)”

[3] = tested on: S. aureus; assay: as above; type: cell-based, Staphylococcus aureus; settings: pH 5.5
Method: as §1, §2, §3, §4
as §2, with “Synergistic effects between” for “Activity of”, “(BAHP) and 1,2-Octanediol were determined. Activity of BAHP, 1,2-Octanediol and the combination of BAHP and 1,2-Octanediol” for “(BAHP)”

[4] = tested on: C. albicans; assay: as above; type: cell-based, Candida albicans; settings: pH 5.5
Method: as §1, §2, §3, §4
as §2, with “Synergistic effects between” for “Activity of”, “(BAHP) and 1,2-Octanediol were determined. Activity of BAHP, 1,2-Octanediol and the combination of BAHP and 1,2-Octanediol” for “(BAHP)”

[5] = tested on: spores of A. brasiliensis; assay: as above; type: cell-based, Aspergillus brasiliensis
Method: as §1, §2, §3, §4
Activity of N-Methylsalicylamid (MSA) against the microorganism A. brasiliensis was evaluated in an anionic emulsion with Dracorin CE as emulsifier. The pH value of the emulsion was 5.5.
Activity of Furoic acid methylester (FAME) against the microorganism A. brasiliensis was evaluated in an anionic emulsion with Dracorin CE as emulsifier. The pH value of the emulsion was 5.5.
Activity of Salicylamide (SA) against the microorganism A. brasiliensis was evaluated in an anionic emulsion with Dracorin CE as emulsifier. The pH value of the emulsion was 5.5.
Activity of Salicylic acid hydroxyethyl ester (SAHE) against the microorganism A. brasiliensis was evaluated in an anionic emulsion with Dracorin CE as emulsifier. The pH value of the emulsion was 5.5.
Activity of Salicylic acid hydroxypropyl ester (SAHP) against the microorganism A. brasiliensis was evaluated in an anionic emulsion with Dracorin CE as emulsifier. The pH value of the emulsion was 5.5.
Activity of Benzoic acid-3-hydroxypropylester (BAHP) against spores of A. brasiliensis was evaluated in an anionic emulsion with Dracorin CE as emulsifier. The pH value of the emulsion was 7.
Activity of Anisic acid-3-hydroxypropylester (AAHP) against spores of A. brasiliensis was evaluated in an anionic emulsion with Dracorin CE as emulsifier. The pH value of the emulsion was 7. […]

[6] = tested on: Aspergillus brasiliensis; assay: Minimum inhibitory concentration (MIC) according to DIN 58940; type: cell-based; settings: for MIC: Aspergillus brasiliensis, read-out: MIC values (ppm) Aspergillus brasiliensis
Method: as §1
(§5) The activity of Benzoic acid-3-hydroxypropylester (BAHP), Furoic acid-3-hydroxypropylester (FAHP) and Anisic acid-3-hydroxypropylester (AAHP), Salicylic acid hydroxyethyl ester (SAHE) and Salicylic acid hydroxypropyl ester (SAHP) was determined against the microorganisms Staphylococcus aureus, Candida albicans, Aspergillus brasiliensis, Pseudomonas aeruginosa and Escherichia coli. The activity of N-Methylsalicylamid (MSA), Furoic acid methylester (FAME) and Salicylamide (SA) was determined against the microorganism Aspergillus brasiliensis.

[7] = tested on: Candida albicans; assay: as above; type: cell-based; settings: for MIC values (ppm) Candida aibicans: DIN 58940; for MIC: Candida albicans, read-out: MIC values (ppm) Candida aibicans
Method: as §1, §5

[8] = tested on: Escherichia coli; assay: as above; type: cell-based; settings: for MIC: Escherichia coli, read-out: MIC values (ppm) Escherichia coli
Method: as §1, §5

[9] = tested on: Pseudomonas aeruginosa; assay: as above; type: cell-based; settings: for MIC: Pseudomonas aeruginosa, read-out: MIC values (ppm) Pseudomonas aeruginosa
Method: as §1, §5

[10] = tested on: Staphylococcus aureus; assay: as above; type: cell-based; settings: for MIC: Staphylococcus aureus, read-out: MIC values (ppm) Staphylococcus aureus
Method: as §1, §5

[11] = day 2, 1.0% in anionic emulsion
[12] = day 7, 1.0% in anionic emulsion
[13] = day 14, 1.0% in anionic emulsion
[14] = day 28, 1.0% in anionic emulsion
[15] = day 7, 1.0% in anionic emulsion, pH 5.5
[16] = day 14, 1.0% in anionic emulsion, pH 5.5
[17] = day 14, 1.0% in anionic emulsion, pH 7
[18] = day 28, 1.0% in anionic emulsion, pH 5.5
[19] = day 28, 1.0% in anionic emulsion, pH 7
[20] = day 2, 0.75% in anionic emulsion
[21] = day 7, 0.75% in anionic emulsion
[22] = day 14, 0.75% in anionic emulsion
[23] = day 28, 0.75% in anionic emulsion

Row | SMILES | Colony counts (cfu/g formulation) [1, 11] | Colony counts (cfu/g formulation) [1, 12] | Colony counts (cfu/g formulation) [1, 13] | Colony counts (cfu/g formulation) [1, 14] | Colony counts (cfu/g formulation) [2, 11] | Colony counts (cfu/g formulation) [2, 12] | Colony counts (cfu/g formulation) [2, 13] | Colony counts (cfu/g formulation) [2, 14] | Colony counts (cfu/g formulation) [3, 11] | Colony counts (cfu/g formulation) [3, 12] | Colony counts (cfu/g formulation) [3, 13] | Colony counts (cfu/g formulation) [3, 14] | Colony counts (cfu/g formulation) [4, 13] | Colony counts (cfu/g formulation) [4, 14] | Colony counts (cfu/g formulation) [5, 16] | Colony counts (cfu/g formulation) [5, 18] | MIC [6] | MIC [7] | MIC [8] | MIC [9] | further results
1 | COc1ccc(C(=O)OCCCO)cc1 [AAHP, Anisic acid-3-hydroxypropylester] | <10 cfu/g formulation | <10 cfu/g formulation | <10 cfu/g formulation | <10 cfu/g formulation | <10 cfu/g formulation | <10 cfu/g formulation | <10 cfu/g formulation | <10 cfu/g formulation | <10 cfu/g formulation | <10 cfu/g formulation | <10 cfu/g formulation | <10 cfu/g formulation | <10 cfu/g formulation | <10 cfu/g formulation | <10 cfu/g formulation | <10 cfu/g formulation |  |  |  |  | Colony counts (cfu/g formulation) [4, 11]: <10 cfu/g formulation; Colony counts (cfu/g formulation) [4, 12]: <10 cfu/g formulation; Colony counts (cfu/g formulation) [5, 15]: <10 cfu/g formulation; Colony counts (cfu/g formulation) ([5]; day 7, 1.0% in anionic emulsion, pH 7): <10 cfu/g formulation; Colony counts (cfu/g formulation) [5, 17]: <10 cfu/g formulation; Colony counts (cfu/g formulation) [5, 19]: <10 cfu/g formulation; MIC values (ppm) Aspergillus brasiliensis [6]: 1000 ppm; MIC values (ppm) Candida aibicans [7]: 2500 ppm; MIC values (ppm) Escherichia coli [8]: 2500 ppm; MIC values (ppm) Pseudomonas aeruginosa [9]: >5000 ppm; MIC values (ppm) Staphylococcus aureus [10]: 5000 ppm
2 | O=C(OCCCO)c1ccccc1O [SAHP, Salicylic acid hydroxypropyl ester] |  |  |  |  |  |  |  |  |  |  |  |  |  |  |  |  | 1000 µg/mL (≈ 5.1 mM) | 2500 µg/mL (≈ 12.7 mM) | 2500 µg/mL (≈ 12.7 mM) | > 1000 µg/mL | MIC [10]: 1000 µg/mL (≈ 5.1 mM)
3 | NC(=O)c1ccccc1O [SA, Salicylamide] |  |  |  |  |  |  |  |  |  |  |  |  |  |  | 2.0E+03 cfu/g formulation | <10 cfu/g formulation | 2500 µg/mL (≈ 18.2 mM) |  |  |  | 
4 | O=C(OCCCO)c1ccco1 [FAHP, Furoic acid-3-hydroxypropylester] | <10 cfu/g formulation | <10 cfu/g formulation | <10 cfu/g formulation | <10 cfu/g formulation | <10 cfu/g formulation | <10 cfu/g formulation | <10 cfu/g formulation | <10 cfu/g formulation | <10 cfu/g formulation | <10 cfu/g formulation | <10 cfu/g formulation | <10 cfu/g formulation | <10 cfu/g formulation | <10 cfu/g formulation |  |  |  |  |  |  | MIC values (ppm) Aspergillus brasiliensis [6]: 5000 ppm; MIC values (ppm) Candida aibicans [7]: >5000 ppm; MIC values (ppm) Escherichia coli [8]: >5000 ppm; MIC values (ppm) Pseudomonas aeruginosa [9]: >5000 ppm; MIC values (ppm) Staphylococcus aureus [10]: >5000 ppm
5 | COC(=O)c1ccco1 [FAME, Furoic acid methylester] |  |  |  |  |  |  |  |  |  |  |  |  |  |  |  | <10 cfu/g formulation | > 1000 µg/mL |  |  |  | 
6 | O=C(OCCO)c1ccccc1O [SAHE, Salicylic acid hydroxyethyl ester] |  |  |  |  |  |  |  |  |  |  |  |  |  |  |  |  | 2500 µg/mL (≈ 13.7 mM) | 2500 µg/mL (≈ 13.7 mM) | 2000 µg/mL (≈ 11 mM) | > 1000 µg/mL | MIC [10]: > 1000 µg/mL
7 | O=C(OCCCO)c1ccccc1 [BAHP, Benzoic acid-3-hydroxypropylester] | <10 cfu/g formulation | <10 cfu/g formulation | <10 cfu/g formulation | <10 cfu/g formulation | <10 cfu/g formulation | <10 cfu/g formulation | <10 cfu/g formulation | <10 cfu/g formulation | <10 cfu/g formulation | <10 cfu/g formulation | <10 cfu/g formulation | <10 cfu/g formulation | <10 cfu/g formulation | <10 cfu/g formulation | <10 cfu/g formulation | <10 cfu/g formulation | 2500 µg/mL (≈ 13.9 mM) | 2500 µg/mL (≈ 13.9 mM) | 2000 µg/mL (≈ 11.1 mM) | > 5000 µg/mL | Colony counts (cfu/g formulation) [1, 20]: <10 cfu/g formulation; Colony counts (cfu/g formulation) [1, 21]: <10 cfu/g formulation; Colony counts (cfu/g formulation) [1, 22]: <10 cfu/g formulation; Colony counts (cfu/g formulation) [1, 23]: <10 cfu/g formulation; Colony counts (cfu/g formulation) [2, 20]: <10 cfu/g formulation; Colony counts (cfu/g formulation) [2, 21]: <10 cfu/g formulation; Colony counts (cfu/g formulation) [2, 22]: <10 cfu/g formulation; Colony counts (cfu/g formulation) [2, 23]: <10 cfu/g formulation; Colony counts (cfu/g formulation) [3, 21]: <10 cfu/g formulation; Colony counts (cfu/g formulation) [3, 22]: <10 cfu/g formulation; Colony counts (cfu/g formulation) [3, 23]: <10 cfu/g formulation; Colony counts (cfu/g formulation) [4, 21]: <10 cfu/g formulation; Colony counts (cfu/g formulation) [4, 12]: <10 cfu/g formulation; Colony counts (cfu/g formulation) [4, 22]: <10 cfu/g formulation; Colony counts (cfu/g formulation) [4, 23]: <10 cfu/g formulation; Colony counts (cfu/g formulation) [5, 17]: <10 cfu/g formulation; Colony counts (cfu/g formulation) [5, 19]: <10 cfu/g formulation; MIC [10]: 5000 µg/mL (≈ 27.7 mM)
8 | CCCCCCC(O)CO (stereo not shown) [1,2-Octanediol, reference compound] |  |  |  |  |  |  |  |  |  |  |  |  |  |  |  |  |  |  |  |  | Colony counts (cfu/g formulation) [1, 20]: <10 cfu/g formulation; Colony counts (cfu/g formulation) [1, 21]: <10 cfu/g formulation; Colony counts (cfu/g formulation) [1, 22]: <10 cfu/g formulation; Colony counts (cfu/g formulation) [1, 23]: <10 cfu/g formulation; Colony counts (cfu/g formulation) [2, 20]: <10 cfu/g formulation; Colony counts (cfu/g formulation) [2, 21]: <10 cfu/g formulation; Colony counts (cfu/g formulation) [2, 22]: <10 cfu/g formulation; Colony counts (cfu/g formulation) [2, 23]: <10 cfu/g formulation; Colony counts (cfu/g formulation) [3, 20]: <10 cfu/g formulation; Colony counts (cfu/g formulation) [3, 21]: <10 cfu/g formulation; Colony counts (cfu/g formulation) [3, 22]: <10 cfu/g formulation; Colony counts (cfu/g formulation) [3, 23]: <10 cfu/g formulation; Colony counts (cfu/g formulation) [4, 21]: <10 cfu/g formulation; Colony counts (cfu/g formulation) [4, 22]: <10 cfu/g formulation; Colony counts (cfu/g formulation) [4, 23]: <10 cfu/g formulation
9 | CNC(=O)c1ccccc1O [MSA, N-Methylsalicylamid] |  |  |  |  |  |  |  |  |  |  |  |  |  |  | <10 cfu/g formulation | <10 cfu/g formulation | 1000 µg/mL (≈ 6.62 mM) |  |  |  | Colony counts (cfu/g formulation) [5, 15]: <10 cfu/g formulation
